Test results published in patent US20210205336A1, “Storage-stable ready-to-use formulations of Tigecycline” (RK Pharma Solutions LLC, priority 2019, published 2021).
Values joined by “and” are separate entries in the source; they are usually repeats but may differ in a detail not shown here. Equal values may be shown once.

Assay: Storage stability (purity and impurity profile) of ready-to-use tigecycline formulations at refrigeration, 2-8° C.
Assay type: physicochemical
Parameters: Tricyclic Impurity / Max. Unk Imp. / Oxo Impurity / Epimer Impurity / Total Impurity: unit not given here
Procedure: As used herein, and unless otherwise specified, the term “storage-stable” refers to any tigecycline-containing composition or formulation having sufficient physical and chemical stability to allow storage at a convenient temperature, such as between about 0° C. and about 50° C., for a commercially reasonable period of time. The phrase “physical stability” refers to maintenance of colour or colourless state, dissolved oxygen level, head space oxygen level and particulate matter and the phrase “chemical stability” relates to formation of drug-related impurities in terms of total impurities, single maximum individual impurity, or maximum individual unknown impurity. For pharmaceutical products, stability is required for commercially relevant times after manufacturing, such as for about 6, 12, 18, 24, or 36 months, during which time a product is kept in its original packaging under specified storage conditions. Solution A and Solution B were then further nitrogen purged for another 30 minutes and closed tightly after nitrogen flushing and covered with black cover. Solution A and solution B were stored in refrigerator (2-8° C.) for 02 hours. 100 mg tigecycline was charged in solution B followed by the addition of solution B to solution A while the solution A was kept at ice bath (e.g., about 0° C.). Now, the total 100 ml solution in the infusion bag was nitrogen purged for another 15 minutes and sealed after nitrogen flushing and stored at refrigerator (2-8° C.). […] Calcium chloride 60 mg and sodium bisulfite 2.5 mg were dissolved in 3 ml 5% dextrose for injection. The volume was made up to 5 ml with 5% dextrose solution. The solution was then nitrogen purged until dissolved oxygen reached <0.1 mg/L. 50 mg tigecycline was transferred into an amber color vial and then the 5 ml of the above solution was poured in the vial under nitrogen. The headspace of the vial was flushed through with nitrogen and packed. The vials were stored at refrigeration condition. Calcium chloride 60 mg and sodium bisulfite 2.5 mg were dissolved in 3 ml 5% dextrose. pH was adjusted to 5.5-6.0 pH range using 0.1 M meglumine solution, as required. The volume was made up to 5 ml with 5% dextrose solution. The solution was then nitrogen purged until dissolved oxygen reached <0.1 mg/L. 50 mg tigecycline was transferred into an amber colour vial and then the 5 ml of the above solution was poured in the vial under nitrogen. The headspace of the vial was flushed through with nitrogen and packed. The vials were stored at refrigeration condition. Calcium chloride 60 mg and sodium bisulfite 2.5 mg were dissolved in 3 ml 5% dextrose. pH was adjusted to 4.5-5.0 pH range using 0.1 M meglumine solution, as required. The volume was made up to 5 ml with 5% dextrose solution. The solution was then nitrogen purged until dissolved oxygen reached <0.1 mg/L. 50 mg tigecycline was transferred into an amber colour vial and then the 5 ml of the above solution was poured in the vial under nitrogen. The headspace of the vial was flushed through with nitrogen and packed. The vials were stored at refrigeration condition. Calcium chloride 60 mg and sodium bisulfite 2.5 mg were dissolved in 3 ml 0.9% NaCl Solution. The volume was made up to 5 ml with 0.9% NaCl Solution. […]

[1] = API (tigecycline before formulation)

CN(C)c1cc(NC(=O)CNC(C)(C)C)c(O)c2c1C[C@H]1C[C@H]3[C@H](N(C)C)C(=O)/C(=C(\N)O)C(=O)[C@@]3(O)C(=O)C1=C2O [API, (4S,4aS,5aR,12aS)-9-[2-(tert-butylamino)acetamido]4,7-bis(dimethylamino)-1,4,4a,5,5a,6,11,12a-octahydro-3,10,12,12a-tetrahydroxy-1,11dioxo-2-naphthacenecarboxamide]
% Purity [1]: 99.22% and 99.2% and 99.18%
Epimer Impurity [1]: 0.5 and 0.48 and 0.49
Max. Unk Imp. [1]: 0.05 and 0.04
Oxo Impurity [1]: 0.02
Tricyclic Impurity [1]: 0.03 and 0.04 and 0.05
Purity (API (tigecycline before formulation), Tables 4A-9A): 99.3
Rel. Comp. B (API (tigecycline before formulation), in % (unit assumed)): 0.01 and 0.02
Total Impurity (API column, Day 1 (tigecycline before formulation)): 0.82
